Experimental data from patent US20210070748A1, “INHIBITORS OF BRUTONS TYROSINE KINASE” (Pharmacyclics LLC, priority 2015, published 2021).

How the values were obtained:
Assay type in all cases: biochemical
LCK = LCK (Homo sapiens, UniProt P06239); assay: Inhibition of a panel of kinases, in vitro HotSpot kinase assay: LCK; details: E compounds, Table 17; read-out: IC50 LCK
EGFR = EGFR (Homo sapiens, UniProt P00533); assay: Inhibition of a panel of kinases, in vitro HotSpot kinase assay: EGFR; details: E compounds, Table 17
Sequence of EGFR (P00533 25-1210): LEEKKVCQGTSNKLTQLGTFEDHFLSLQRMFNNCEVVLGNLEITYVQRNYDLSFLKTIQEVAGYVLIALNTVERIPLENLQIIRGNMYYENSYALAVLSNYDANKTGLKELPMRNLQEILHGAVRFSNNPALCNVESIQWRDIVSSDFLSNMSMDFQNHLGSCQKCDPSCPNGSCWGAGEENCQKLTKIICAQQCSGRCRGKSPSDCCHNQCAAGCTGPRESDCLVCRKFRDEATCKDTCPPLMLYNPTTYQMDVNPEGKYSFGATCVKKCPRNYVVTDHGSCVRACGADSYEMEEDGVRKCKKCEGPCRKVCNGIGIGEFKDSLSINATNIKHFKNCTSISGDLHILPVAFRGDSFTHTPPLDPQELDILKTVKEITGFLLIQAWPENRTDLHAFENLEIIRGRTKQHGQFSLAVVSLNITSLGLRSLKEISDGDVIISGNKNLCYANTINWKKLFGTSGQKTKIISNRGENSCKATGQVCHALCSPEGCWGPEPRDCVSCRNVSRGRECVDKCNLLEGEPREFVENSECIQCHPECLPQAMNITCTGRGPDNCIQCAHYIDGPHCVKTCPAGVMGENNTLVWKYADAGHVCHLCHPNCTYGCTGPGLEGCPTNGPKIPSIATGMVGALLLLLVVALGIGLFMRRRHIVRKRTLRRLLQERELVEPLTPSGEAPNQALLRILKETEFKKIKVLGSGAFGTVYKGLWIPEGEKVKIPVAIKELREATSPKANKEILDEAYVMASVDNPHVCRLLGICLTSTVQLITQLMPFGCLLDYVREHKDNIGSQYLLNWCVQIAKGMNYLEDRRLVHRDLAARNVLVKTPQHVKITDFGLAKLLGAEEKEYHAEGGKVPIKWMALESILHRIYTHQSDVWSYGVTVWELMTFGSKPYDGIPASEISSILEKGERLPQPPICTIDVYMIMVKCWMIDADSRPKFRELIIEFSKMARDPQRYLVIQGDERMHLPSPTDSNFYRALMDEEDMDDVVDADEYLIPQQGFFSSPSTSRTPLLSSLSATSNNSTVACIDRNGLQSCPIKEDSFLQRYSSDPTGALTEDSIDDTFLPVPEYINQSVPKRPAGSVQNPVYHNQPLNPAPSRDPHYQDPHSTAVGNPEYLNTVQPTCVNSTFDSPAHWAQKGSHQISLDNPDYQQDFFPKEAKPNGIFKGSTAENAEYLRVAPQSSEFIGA
Description: (§1) The degree of inhibition of a panel of kinases is determined using the in vitro HotSpot kinase assay (purified enzymes, ^33P-ATP, an appropriate substrate and 1 μM ATP).

SRC = SRC (Homo sapiens, UniProt P12931); assay: Inhibition of a panel of kinases, in vitro HotSpot kinase assay: SRC; details: E compounds, Table 17
Sequence of SRC (P12931 whole entry): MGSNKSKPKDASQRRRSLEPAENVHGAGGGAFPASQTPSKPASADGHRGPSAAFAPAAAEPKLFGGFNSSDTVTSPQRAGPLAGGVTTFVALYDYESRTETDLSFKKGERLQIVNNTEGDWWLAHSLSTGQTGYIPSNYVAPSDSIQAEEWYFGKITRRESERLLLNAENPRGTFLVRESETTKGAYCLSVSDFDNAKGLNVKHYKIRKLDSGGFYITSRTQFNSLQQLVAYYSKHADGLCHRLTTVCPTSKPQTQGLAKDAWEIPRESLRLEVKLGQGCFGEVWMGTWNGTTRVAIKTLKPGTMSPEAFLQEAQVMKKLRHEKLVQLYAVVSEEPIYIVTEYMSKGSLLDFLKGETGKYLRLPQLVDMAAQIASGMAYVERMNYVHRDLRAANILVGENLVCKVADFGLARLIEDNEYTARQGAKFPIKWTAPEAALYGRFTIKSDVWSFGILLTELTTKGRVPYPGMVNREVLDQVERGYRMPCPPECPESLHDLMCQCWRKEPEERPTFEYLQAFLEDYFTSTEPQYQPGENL
Description: as §1

BTK-WT = target: T1, BTK-WT (Homo sapiens, UniProt Q06187); assay: Btk in vitro inhibitory activity (one of Method A TR-FRET, Method B electrophoretic mobility shift, Method C radiometric filter binding); details: E compounds, Table 17; read-out: IC50 BTK-WT
T1 construct: purified from insect cells as a full-length construct containing an N-terminal 6X-His tag; His6 (N); made in house; host or cells: insect cells (baculovirus Sf21 in Method B)
T1 sequence (Q06187 whole entry): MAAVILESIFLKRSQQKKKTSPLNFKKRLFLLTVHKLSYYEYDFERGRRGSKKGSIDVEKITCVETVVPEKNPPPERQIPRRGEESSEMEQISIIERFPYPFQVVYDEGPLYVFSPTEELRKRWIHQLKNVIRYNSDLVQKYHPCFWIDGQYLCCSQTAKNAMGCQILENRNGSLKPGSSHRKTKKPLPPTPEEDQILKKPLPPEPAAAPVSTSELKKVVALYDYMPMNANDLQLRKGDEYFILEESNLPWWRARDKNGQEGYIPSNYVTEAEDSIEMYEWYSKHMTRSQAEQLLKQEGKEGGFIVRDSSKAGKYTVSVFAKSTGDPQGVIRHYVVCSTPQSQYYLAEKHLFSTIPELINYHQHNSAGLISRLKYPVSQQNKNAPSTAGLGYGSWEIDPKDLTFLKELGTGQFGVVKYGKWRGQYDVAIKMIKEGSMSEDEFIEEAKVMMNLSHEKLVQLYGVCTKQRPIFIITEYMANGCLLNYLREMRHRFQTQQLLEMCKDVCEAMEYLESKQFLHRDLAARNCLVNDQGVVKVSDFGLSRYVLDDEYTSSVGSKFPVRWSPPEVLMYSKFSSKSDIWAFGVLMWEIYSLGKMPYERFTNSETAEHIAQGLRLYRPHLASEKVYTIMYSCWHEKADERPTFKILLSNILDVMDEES

JAK3 = target: T2, JAK3 (Homo sapiens, UniProt P52333); assay: Inhibition of a panel of kinases, in vitro HotSpot kinase assay: JAK3; details: E compounds, Table 17; read-out: IC50 JAK3
T2 sequence (P52333 1-1124): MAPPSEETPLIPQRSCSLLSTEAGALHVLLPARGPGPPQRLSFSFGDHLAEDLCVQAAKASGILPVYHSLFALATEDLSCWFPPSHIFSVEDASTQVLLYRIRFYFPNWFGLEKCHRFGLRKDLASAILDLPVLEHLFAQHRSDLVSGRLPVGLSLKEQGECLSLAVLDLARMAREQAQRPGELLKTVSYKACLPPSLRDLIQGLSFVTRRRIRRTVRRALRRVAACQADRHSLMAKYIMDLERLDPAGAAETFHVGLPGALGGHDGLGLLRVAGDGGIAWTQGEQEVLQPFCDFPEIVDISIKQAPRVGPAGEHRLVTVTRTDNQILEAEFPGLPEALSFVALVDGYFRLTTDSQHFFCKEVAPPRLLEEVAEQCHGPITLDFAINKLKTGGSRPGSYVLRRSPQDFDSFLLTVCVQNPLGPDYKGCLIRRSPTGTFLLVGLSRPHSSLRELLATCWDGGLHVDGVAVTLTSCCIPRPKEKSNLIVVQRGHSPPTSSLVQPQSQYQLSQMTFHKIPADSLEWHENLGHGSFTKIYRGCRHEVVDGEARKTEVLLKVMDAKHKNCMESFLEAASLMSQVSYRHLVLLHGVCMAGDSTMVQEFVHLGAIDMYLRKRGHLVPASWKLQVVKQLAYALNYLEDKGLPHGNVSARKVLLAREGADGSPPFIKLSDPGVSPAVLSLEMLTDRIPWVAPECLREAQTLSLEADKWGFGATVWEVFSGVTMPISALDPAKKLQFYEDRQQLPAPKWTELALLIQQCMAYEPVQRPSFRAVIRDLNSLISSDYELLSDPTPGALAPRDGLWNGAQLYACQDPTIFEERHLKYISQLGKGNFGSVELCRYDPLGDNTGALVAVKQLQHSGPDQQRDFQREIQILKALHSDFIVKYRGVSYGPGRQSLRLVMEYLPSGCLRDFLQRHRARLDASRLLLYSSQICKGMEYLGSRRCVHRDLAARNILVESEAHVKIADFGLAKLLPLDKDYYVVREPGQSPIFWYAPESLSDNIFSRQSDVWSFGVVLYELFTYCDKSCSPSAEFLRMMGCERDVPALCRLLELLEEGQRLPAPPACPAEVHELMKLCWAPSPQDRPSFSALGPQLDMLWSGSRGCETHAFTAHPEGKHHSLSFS

Sequence of LCK (P06239 whole entry): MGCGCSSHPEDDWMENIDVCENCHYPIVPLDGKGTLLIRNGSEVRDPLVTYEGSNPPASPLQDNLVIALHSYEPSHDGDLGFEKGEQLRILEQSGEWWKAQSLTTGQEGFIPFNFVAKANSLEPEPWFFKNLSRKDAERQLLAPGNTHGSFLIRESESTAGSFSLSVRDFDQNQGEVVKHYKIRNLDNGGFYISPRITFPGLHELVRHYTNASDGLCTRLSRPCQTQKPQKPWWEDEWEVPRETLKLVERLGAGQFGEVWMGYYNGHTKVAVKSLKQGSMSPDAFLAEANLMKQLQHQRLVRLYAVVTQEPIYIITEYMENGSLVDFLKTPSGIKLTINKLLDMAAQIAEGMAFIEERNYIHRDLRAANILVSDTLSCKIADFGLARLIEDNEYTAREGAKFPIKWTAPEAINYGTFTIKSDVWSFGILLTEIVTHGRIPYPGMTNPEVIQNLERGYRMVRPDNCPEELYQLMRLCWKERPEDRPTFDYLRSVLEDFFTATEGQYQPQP

IC50 (LCK) [µM] | IC50 (EGFR) [µM] | IC50 (SRC) [µM] | IC50 (BTK-WT) [µM] | IC50 (JAK3) [µM] | Structure (SMILES)
0.1 to 1 | 0.01 to 0.1 | 0.01 to 0.1 | ≤ 0.01 | < 0.01 | C=CC(=O)N1CC[C@@H](N(C)c2nnc(C(N)=O)c(Nc3cc(C)ns3)n2)C1 [Example E-12, (R)-3-((1-acryloylpyrrolidin-3-yl)(methyl)amino)-5-(3-methylisothiazol-5-ylamino)-1,2,4-triazine-6-carboxamide]
1 to 10 | ≤ 0.01 | 0.01 to 0.1 | ≤ 0.01 | < 0.01 | C=CC(=O)N1CC[C@@H](N(C)c2nnc(C(N)=O)c(Nc3ccc(C(C)C)cc3)n2)C1 [Example E-26, (R)-3-((1-acryloylpyrrolidin-3-yl)(methyl)amino)-5-(4-isopropylphenylamino)-1,2,4-triazine-6-carboxamide]
0.1 to 1 | ≤ 0.01 | 0.1 to 1 | ≤ 0.01 | < 0.01 | C=CC(=O)N1CCC[C@@H](Nc2nnc(C(N)=O)c(Nc3ccc(-c4ncco4)cc3)n2)C1 [Example E-40, (R)-3-(1-acryloylpiperidin-3-ylamino)-5-(4-(oxazol-2-yl)phenylamino)-1,2,4-triazine-6-carboxamide]
0.1 to 1 | 0.01 to 0.1 | 0.1 to 1 | ≤ 0.01 | < 0.01 | C=CC(=O)N1CCC[C@@H](Nc2nnc(C(N)=O)c(Nc3ccc(-c4ncccn4)cc3)n2)C1 [Example E-41, (R)-3-(1-acryloylpiperidin-3-ylamino)-5-(4-(pyrimidin-2-yl)phenylamino)-1,2,4-triazine-6-carboxamide]
0.01 to 0.1 | ≤ 0.01 | 0.01 to 0.1 | ≤ 0.01 | < 0.01 | C=CC(=O)N1CCC[C@@H](Nc2nnc(C(N)=O)c(Nc3ccc(C4CCN(C(=O)CC)CC4)cc3)n2)C1 [Example E-45, (R)-3-(1-acryloylpiperidin-3-ylamino)-5-(4-(1-propionylpiperidin-4-yl)phenylamino)-1,2,4-triazine-6-carboxamide]
0.01 to 0.1 | 0.01 to 0.1 | ≤ 0.01 | ≤ 0.01 | < 0.01 | C=CC(=O)N[C@@H]1CCCN(c2cnc(C(N)=O)c(Nc3ccc(C4CCN(C5CC5)CC4)cc3)n2)[C@@H]1C [Example E-93, 5-((2R,3R)-3-acrylamido-2-methylpiperidin-1-yl)-3-(4-(1-cyclopropylpiperidin-4-yl)phenylamino)pyrazine-2-carboxamide]
0.1 to 1 | 0.01 to 0.1 | ≤ 0.01 | ≤ 0.01 | < 0.01 | C=CC(=O)N[C@@H]1CCCN(c2cnc(C(N)=O)c(Nc3cc(C)ns3)n2)[C@@H]1C [Example E-97, 5-((2R,3R)-3-acrylamido-2-methylpiperidin-1-yl)-3-(3-methylisothiazol-5-ylamino)pyrazine-2-carboxamide]
0.1 to 1 | 0.01 to 0.1 | 0.01 to 0.1 | ≤ 0.01 | < 0.01 | C=CC(=O)N1CC[C@@H](N(C)c2cnc(C(N)=O)c(Nc3ccc(C4CCN(C5CCCC5)CC4)cc3)n2)C1 [Example E-109, (R)-5-((1-acryloylpyrrolidin-3-yl)(methyl)amino)-3-(4-(1-cyclopentylpiperidin-4-yl)phenylamino)pyrazine-2-carboxamide]
1 to 10 | 0.1 to 1 | 0.1 to 1 | ≤ 0.01 | < 0.01 | C=CC(=O)N1CC[C@@H](N(C)c2cnc(C(N)=O)c(Nc3cnn(CCOC)c3)n2)C1 [Example E-110, (R)-5-((1-acryloylpyrrolidin-3-yl)(methyl)amino)-3-(1-(2-methoxyethyl)-1H-pyrazol-4-ylamino)pyrazine-2-carboxamide]
0.01 to 0.1 | ≤ 0.01 | 0.01 to 0.1 | ≤ 0.01 | < 0.01 | C=CC(=O)N1CC[C@@H](N(C)c2cnc(C(N)=O)c(Nc3ccc(C4CCN(C5CC5)CC4)cc3)n2)C1 [Example E-121, (R)-5-((1-acryloylpyrrolidin-3-yl)(methyl)amino)-3-(4-(1-cyclopropylpiperidin-4-yl)phenylamino)pyrazine-2-carboxamide]
0.01 to 0.1 | 0.01 to 0.1 | ≤ 0.01 | ≤ 0.01 | < 0.01 | C=CC(=O)N1CCC[C@@H](N(C)c2cnc(C(N)=O)c(Nc3ccc(C4CCN(C5CCCC5)CC4)cc3)n2)C1 [Example E-125, (R)-5-((1-acryloylpiperidin-3-yl)(methyl)amino)-3-(4-(1-cyclopentylpiperidin-4-yl)phenylamino)pyrazine-2-carboxamide]
0.01 to 0.1 | 0.1 to 1 | 0.01 to 0.1 | ≤ 0.01 | 0.1 to 1 | C[C@@H]1[C@H](NC(=O)c2ccc(C3CC3)cc2)CCCN1c1cnc(C(N)=O)c(Nc2ccc(OC3CCN(C)C3)cc2)n1 (stereo partly drawn) [Example E-136, 5-((2R,3R)-3-(4-cyclopropylbenzamido)-2-methylpiperidin-1-yl)-3-((4-((1-methylpyrrolidin-3-yl)oxy)phenyl)amino) pyrazine-2-carboxamide]
0.01 to 0.1 | 1 to 10 | 0.01 to 0.1 | ≤ 0.01 | 1 to 10 | C[C@@H]1[C@H](NC(=O)c2ccc(C3CC3)cc2)CCCN1c1cnc(C(N)=O)c(Nc2ccc(N3CCN(C4CCCC4)C[C@@H]3C)cc2)n1 [Example E-137, 3-((4-((S)-4-cyclopentyl-2-methylpiperazin-1-yl)phenyl)amino)-5-((2R,3R)-3-(4-cyclopropylbenzamido)-2-methyipiperidin-1-yl)pyrazine-2-carboxamide]
0.1 to 1 | 0.1 to 1 | 0.01 to 0.1 | ≤ 0.01 | 0.1 to 1 | C[C@@H]1[C@H](NC(=O)c2ccc(C(=O)N(C)C)cc2)CCCN1c1cnc(C(N)=O)c(Nc2cnn(C)c2)n1 [Example E-138, N1-((2R,3R)-1-(5-carbamoyl-6-((1-methyl-1H-pyrazol-4-yl)amino)pyrazin-2-yl)-2-methylpiperidin-3-yl)-N4,N4-dimethylterephthalamide]
0.01 to 0.1 | 0.1 to 1 | 0.01 to 0.1 | ≤ 0.01 | 0.1 to 1 | C[C@@H]1[C@H](NC(=O)c2ccc3oc(C4CC4)nc3c2)CCCN1c1cnc(C(N)=O)c(Nc2cnn(C)c2)n1 [Example E-139, N-((2R,3R)-1-(5-carbamoyl-6-((1-methyl-1H-pyrazol-4-yl)amino)pyrazin-2-yl)-2-methylpiperidin-3-yl)-2-cyclopropylbenzo[d] oxazole-5-carboxamide]
1 to 10 | > 10 | > 10 | 0.1 to 1 | > 10 | C[C@@H]1CCN(c2cnc(C(N)=O)c(Nc3cnn(C)c3)n2)C[C@@H]1NC(=O)c1ccc(C2CC2)cc1 [Example E-140, 5-((3R,4R)-3-(4-cyclopropylbenzamido)-4-methylpiperidin-1-yl)-3-((1-methyl-1H-pyrazol-4-yl)amino)pyrazine-2-carboxamide]
0.1 to 1 | 0.1 to 1 | 0.1 to 1 | 0.1 to 1 | 1 to 10 | Cn1cc(Nc2nc(N3CCC4CCN(C(=O)c5ccc(C6CC6)cc5)C4C3)cnc2C(N)=O)cn1 (stereo not drawn) [Example E-141, 5-(1-(4-cyclopropylbenzoyl)octahydro-6H-pyrrolo[2,3-c]pyridin-6-yl)-3-((1-methyl-3H-pyrazol-4-yl)amino)pyrazine-2-carboxamide]

Structure (SMILES) | IC50 (LCK) [µM] | IC50 (EGFR) [µM] | IC50 (SRC) [µM] | IC50 (BTK-WT) [µM] | IC50 (JAK3) [µM]
C=CC(=O)N1CCC[C@@H](N(C)c2cnc(C(N)=O)c(Nc3ccc(C4(C)CCN(C5CCCC5)CC4)cc3)n2)C1 [Example E-103, (R)-5-((1-acryloylpiperidin-3-yl)(methyl)amino)-3-(4-(1-cyclopentyl-4-methylpiperidin-4-yl)phenylamino)pyrazine-2-carboxamide] | < 0.01 | ≤ 0.01 | ≤ 0.01 | ≤ 0.01 | < 0.01
